In patent US11098257B2, “Bioderived fuels and methods of making the same” (Alliance for Sustainable Energy, LLC, priority 2019, dated 2021):
Values after ≈ are worked out from the molar mass of the structure shown.

Tests used:
Format in all cases: physicochemical
[1] = Lower heating value from bomb calorimeter HHV (D240) and hydrogen content; settings: measured value
Description: Heating Values. HHV was found using a bomb calorimeter to combust 15 mL of sample (D240), with LHV calculated using sample hydrogen content (D240, Section 10.5.1) measured using a LECO TruSpec CHN determinator. To find hydrogen content, samples were combusted in excess oxygen at 950° C. The amount of CO2 and H2O produced could then be quantified using IR and using an EDTA calibration standard the hydrogen wt % could be extracted.

[2] = Storage stability aging per ASTM D4625, GC-MS profile; settings: GC-MS profile after 6 weeks of aging (simulating 6 months)
Description: Storage stability testing. Aging conditions to test storage stability of the target ether are based on the procedure of ASTM D4625 Standard Test Method for Middle Distillate Fuel Storage Stability. This method accelerates the oxidation rate of diesel fuel by approximately 4-fold, with one week under these conditions equivalent to approximately one month of storage at 21° C. It should be noted that this degree of acceleration has not been validated for ethers, but nonetheless provides a standard protocol for diesel range sample aging. Aging was conducted for 6 weeks (simulating 6 months) with measurement of peroxide concentration at 2-week intervals. Peroxide concentration was measured following AOCS method Cd 8b-90, modified for potentiometric end point detection and smaller sample size. A sample of isoamyl ether (>99%, non-stabilized, Sigma-Aldrich) was aged alongside the 4-butoxyheptane for comparison. Samples of 4-butoxyheptane before and after aging were analyzed by gas chromatography with mass spectrometry (GC-MS) in an attempt to identify components produced by oxidation (see Table 11 below). The ether samples were diluted volumetrically in acetone 1:10. Analysis was conducted with an Agilent 7890A GC coupled with an Agilent 5975C mass selective detector (MSD). […]

[3] = Boiling point (simulated distillation T90 D2887; blend by TGA); settings: measured value
Excerpt: Boiling Point. Tboil of pure was estimated using T90 of a simulated distillation (D2887), with blend Tboil determined using thermogravimetric analysis (TGA).

[4] = Water solubility, ether in aqueous layer by GC/MS; settings: thermodynamic from solid; purified ether, water saturated 1:5 by volume, left overnight
Description: Water Solubility. […] The mixed samples were left overnight to separate and the amount of ether in the aqueous layer was determined by GC/MS.

Flash point measurement = settings: measured value
Description: Flash point. D7094 was used to measure Tflash with an average error of ±1.3° C.

[5] = Rapid small-scale oxidation test (RSSOT), PetroOxy induction time
Description: The next important consideration is that of safety and fuel quality upon storage of the novel blendstock. Oxidation stability of 4-butoxyheptane was examined experimentally. Two distinct characterizations were performed regarding oxidation potential during storage. The first utilized a rapid small-scale oxidation test (RSSOT) using a PetroOxy instrument to determine induction time, which indicates the potential for a fuel to oxidize during storage, which may result in quality degradation from formation of low molecular weight acids and insoluble polymers.

Lower Heating Value [1] [mJ/kg]	Boiling Point [3] [°C]	Flashpoint (Flash point measurement) [°C]	SMILES	Lower Heating Value ([1]; listed as drawing 5) [mJ/kg]	% Total Area [2] [%]	solubility [4] [µg/mL]	induction period ([5]; neat ether, no antioxidant)	induction period with antioxidant ([5]; with 100 ppm butylated hydroxytoluene (BHT)) [min]
42	236	83	CCCCCC(CCCCC)OCC [6-ethoxyundecane]					
43	234	68	CCCCCCOC(CCC)CCC [4-hexoxyheptane]					

SMILES	Lower Heating Value [1] [mJ/kg]	Boiling Point [3] [°C]	Flashpoint (Flash point measurement) [°C]	Lower Heating Value ([1]; listed as drawing 5) [mJ/kg]	% Total Area [2] [%]	solubility [4] [µg/mL]	induction period ([5]; neat ether, no antioxidant)	induction period with antioxidant ([5]; with 100 ppm butylated hydroxytoluene (BHT)) [min]
CCCCOC(CCC)CCC [4-butoxyheptane]	39.2	198	64	39	94.90	15 (≈ 87.1 µM)	about 23 minutes	> 60
